Test results published in PubChem BioAssay (NCI).
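1) Cells in 96-well plates. 2) Compound, 48 h, 5 concentrations. 3) Linear interpolation between surrounding doses. 4) Unreached endpoint = highest concentration. GI50 marks 50% less growth. TGI is the concentration that stops growth completely.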

How the values were obtained:
Test in all cases: NCI anticancer screen, dose series, 48 h
[1] = system: OVCAR-8 ovarian
[2] = system: UO-31 renal
[3] = system: SF-539 CNS
[4] = system: SNB-75 CNS
[5] = system: PC-3 prostate
[6] = system: NCI-H226 lung
[7] = system: HT29 colon
[8] = system: SR leukemia
[9] = system: U251 CNS
[10] = system: K-562 leukemia

Structure (SMILES) | GI50 [1] [µM] | TGI [1] [µM] | GI50 [2] [µM] | TGI [2] [µM] | GI50 [3] [µM] | TGI [3] [µM] | GI50 [4] [µM] | TGI [4] [µM] | GI50 [5] [µM] | TGI [5] [µM] | GI50 [6] [µM] | TGI [6] [µM] | GI50 [7] [µM] | TGI [7] [µM] | GI50 [8] [µM] | TGI [8] [µM] | GI50 [9] [µM] | TGI [9] [µM] | GI50 [10] [µM] | TGI [10] [µM]
CCCCCCCCCCCCCCCC(N)c1ccccc1 (stereo not given) | 2.22 | 4.89 | 1.49 | 2.97 | 1.69 | 3.17 | 1.27 | 2.88 | 1.67 | 3.26 | 1.91 | 3.69 | 1.66 | 3.32 | 0.558 | 2.43 | 1.68 | 3.2 | 1.89 | 4.2
O=S1Cc2ccccc2CSS1 (stereo not given) | – | 27.6 | – | 32.6 | – | 29.8 | – | 43.4 | – | – | – | 55.4 | – | 32.1 | – | 51.2 | – | 31.9 | – | 38.1
COc1cc(OC)c2c(c1Cl)O[C@]1(C2=O)C(OCc2ccccc2)=CC(=O)C[C@H]1C | 1.02 | 29.4 | 2.51 | 61.2 | 0.884 | 9.28 | 0.936 | 27.4 | 1.6 | 63.3 | 4.18 | 30.2 | 0.534 | 15.8 | 0.331 | 10.8 | – | – | 0.538 | 29.1
COc1ccc2c(c1)C(=O)c1c-2n(CCCNCCO)c(=O)c2cc([N+](=O)[O-])ccc12 | < 0.01 | 1.34 | – | – | < 0.01 | < 0.01 | < 0.01 | 0.172 | < 0.0137 | 1.33 | 0.0477 | 0.97 | < 0.01 | 1.09 | < 0.01 | < 0.01 | < 0.01 | 1.03 | – | –
O=S1(=O)C=C(c2ccccc2)C(c2ccccc2)=C1 | 1.56 | 3.19 | 1.15 | 2.6 | 2.14 | 5.94 | 1.33 | 2.6 | 1.79 | 4.52 | 1.68 | 3.34 | – | – | 2.8 | 13.9 | 1.54 | 2.88 | 1.83 | > 100
CC(C)Cn1cnc2c(SCc3ccccn3)nc(N)nc21 | – | > 100 | – | > 100 | – | – | – | > 100 | – | > 100 | – | > 100 | – | > 100 | – | > 100 | – | > 100 | – | > 100
C=C1C(OCCO)OC2O[C@]3(C)CCC4[C@H](C)CCC1C24OO3 (stereo not given in full) | 2.16 | 12.5 | 2.78 | 10.2 | 36.6 | > 100 | – | – | 4.11 | > 100 | – | – | 7.54 | > 100 | 2.36 | 26.2 | 35 | > 100 | 4.16 | > 100
CC(=O)N1CCN(C=S)CC1 | – | > 100 | – | > 100 | – | > 100 | – | > 100 | – | – | – | > 100 | – | > 100 | – | > 100 | – | > 100 | – | > 100
